Experiments:
[1] = target: T1, hFAPα, recombinant protein (Homo sapiens, UniProt Q12884); assay: fluorometric enzyme inhibition assay for FAP; type: biochemical; conditions: Morrison equation for tight binding inhibitors; substrate Ala-Pro-AMC; mean ± SD
T1 construct: purchased
T1 sequence (Q12884 1-760): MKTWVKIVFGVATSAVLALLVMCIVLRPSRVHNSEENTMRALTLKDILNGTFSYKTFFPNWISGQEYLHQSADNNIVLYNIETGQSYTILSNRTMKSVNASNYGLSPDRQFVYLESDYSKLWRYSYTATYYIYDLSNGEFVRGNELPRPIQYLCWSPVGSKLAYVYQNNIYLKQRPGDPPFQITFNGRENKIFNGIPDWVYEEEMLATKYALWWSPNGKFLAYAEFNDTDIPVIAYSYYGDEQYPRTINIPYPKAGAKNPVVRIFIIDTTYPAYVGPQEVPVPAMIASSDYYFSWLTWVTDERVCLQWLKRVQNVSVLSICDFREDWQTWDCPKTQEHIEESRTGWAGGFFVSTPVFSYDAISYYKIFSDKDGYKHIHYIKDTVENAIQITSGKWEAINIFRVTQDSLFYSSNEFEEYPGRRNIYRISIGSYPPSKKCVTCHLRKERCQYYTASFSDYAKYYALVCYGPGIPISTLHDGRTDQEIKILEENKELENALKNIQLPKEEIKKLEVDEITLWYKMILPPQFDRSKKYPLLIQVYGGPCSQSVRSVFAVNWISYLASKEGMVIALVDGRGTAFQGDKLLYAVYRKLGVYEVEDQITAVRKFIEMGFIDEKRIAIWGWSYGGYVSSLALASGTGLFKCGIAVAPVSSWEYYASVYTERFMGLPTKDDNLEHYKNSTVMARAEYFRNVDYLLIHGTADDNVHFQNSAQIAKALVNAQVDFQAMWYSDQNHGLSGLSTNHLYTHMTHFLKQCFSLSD
Experimental: Affinity towards FAP was tested using a commercially available fluorometric assay. At the day of the experiment, all tested compounds were diluted in assay buffer (DPP assay buffer, BPS Bioscience, San Diego, CA, USA,) in a 1:1 dilution series, resulting in eleven concentrations, ranging from 2000 nM to 1.950 nM, equal to 200 nM to 0.195 nM per well. The substrate Ala-Pro-AMC (BPS Bioscience, concentration per well: 5 μM, Km = 244 μM (Edosada et al. [2006])) was pipetted along with the inhibitor into a 96-well plate. Subsequently, the enzyme (hFAPα, recombinant protein) was dissolved in assay buffer and added to the wells. The final concentration of DMSO per well was 0.2%. The 96-well plate was immediately loaded into a multimode plate reader (Biotek Cytation 5, Agilent, Santa Clara, CA, USA). The fluorescence intensity for each well was measured over a time course of 30 min with measurement intervals of 15 s, an excitation wavelength of 360 ± 20 nm and an emission wavelength of 450 ± 20 nm. Data (relative fluorescence units, RFU) over the total measurement time was analyzed by linear regression. The slope of the resulting graphs was analyzed over the inhibitor concentration. The enzyme inhibition constant Ki was calculated using the Morrison equation for tight binding inhibitors (Williams and Morrison [1979]). […]

[2] = target: T2, human recombinant dipeptidylpeptidase IV (Homo sapiens, UniProt P27487); assay: fluorometric enzyme inhibition assay for DPPIV; type: biochemical
T2 construct: purchased Cayman Chemical
T2 sequence (P27487 whole entry): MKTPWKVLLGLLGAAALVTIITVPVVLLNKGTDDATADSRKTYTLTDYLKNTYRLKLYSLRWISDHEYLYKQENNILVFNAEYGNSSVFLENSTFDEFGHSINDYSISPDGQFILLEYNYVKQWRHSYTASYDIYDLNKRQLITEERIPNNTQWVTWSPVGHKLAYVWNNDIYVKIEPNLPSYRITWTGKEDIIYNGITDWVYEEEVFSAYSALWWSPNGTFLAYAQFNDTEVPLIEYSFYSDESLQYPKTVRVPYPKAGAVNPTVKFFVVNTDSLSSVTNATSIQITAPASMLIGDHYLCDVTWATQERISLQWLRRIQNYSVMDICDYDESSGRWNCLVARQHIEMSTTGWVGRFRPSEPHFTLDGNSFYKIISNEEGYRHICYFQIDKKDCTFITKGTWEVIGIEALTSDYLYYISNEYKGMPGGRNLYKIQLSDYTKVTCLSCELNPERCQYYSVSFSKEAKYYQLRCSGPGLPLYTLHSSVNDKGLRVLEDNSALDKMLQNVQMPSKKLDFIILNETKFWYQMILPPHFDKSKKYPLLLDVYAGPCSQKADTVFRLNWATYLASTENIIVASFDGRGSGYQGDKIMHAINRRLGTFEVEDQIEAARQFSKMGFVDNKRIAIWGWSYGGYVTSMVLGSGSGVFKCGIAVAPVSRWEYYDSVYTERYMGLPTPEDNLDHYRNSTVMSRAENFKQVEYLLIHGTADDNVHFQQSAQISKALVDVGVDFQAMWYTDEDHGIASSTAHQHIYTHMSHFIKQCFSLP
Experimental: The affinity towards DPPIV was determined using a commercially available inhibitor screening assay kit (Cayman Chemical, USA). The assay was performed according to the manufacturer’s instructions, and the data was analyzed as described above.

WT-HT1080 cells = assay: fluorescence microscopy of cellular binding and uptake; type: cell-based, human; conditions: 1 µM, 37 °C, up to 4 h
Experimental: WT/hFAP-HT1080 cells were seeded in an 18-chamber slide with 10,000 cells/well and cultured overnight. The medium was discarded and replaced by medium containing 1 µM of NODAGA-FAP647. The cells were then further incubated at 37 °C and 5% CO2. The binding of the ligand was stopped at the indicated time points by discarding the media and washing the cells twice with ice-cold PBS. The cells were then quickly fixed with 4% PFA/2.5% saccharose in PBS at 20 °C for 20 min. Following the fixation, cells were incubated with a 1:200 dilution of WGA-CF488A (Biotium #29022–1) in PBS to stain the cell membranes. Finally, the cell nuclei were stained with Hoechst33258 (Sigma #94403) diluted 5 µg/ml in PBS for 30 min at 20 °C. Cells were visualized with the Fluoview 1000 confocal laser scanning microscope (Olympus) using a 100 × oil immersion objective. Three representative images were captured for each well.

[3] = test system: hFAP-HT1080 and WT-HT1080 xenografts; assay: in vivo fluorescence imaging of xenograft-bearing mice; set-up: species or system nude mice
Source text: Female athymic NMRI-nude mice (Rj:NMRI-Foxn1nu, Janvier Labs, France or Charles River, Germany) between 8 and 20 weeks of age were used. Subsequently, the prepared cells (1.0–2.0 × 10^6 hFAP/WT-HT1080 per animal) were subcutaneously injected into the right and left thigh, respectively. Xenograft tissue for real-time binding experiments was derived from animals injected with both target-positive and negative cells, however only showing growth of one tumor entity. When approaching endpoints, mice were anesthetized and euthanized. The tumor was quickly removed, frozen in − 45 °C 2-methylbutane and stored in sealed tubes at − 80 °C.
Optical imaging was performed using a multimodal IVIS-CT (Perkin Elmer, USA). Compounds were injected [0.09 mg/kg (n = 1)/0.33 mg/kg (n = 3) for NODAGA-FAP647; 0.17 mg/kg (n = 3) for NODAGA-FAP800, diluted in 150 µL of sterile 0.9% NaCl solution] into the lateral tail vein, either directly or via catheter. Fluorescence imaging started ~ 2 min post injection for 2–3 h, with 1 min, 3–5 min and 10 min intervals, along with a white-light image. Additional scans were performed after 24 h and, if applicable, later. The fluorescence of the respective fluorophore was captured (NODAGA-FAP647: λEx/Em = 640/680 nm, NODAGA-FAP800: λEx/Em = 745/800 nm). Emitted fluorescence intensity was analyzed (Perkin Elmer, Living Image 4.7.4) in raw data images.

Ki [1]: 0.237 ± 0.064 nM
IC50 [2]: > 10000 nM
ratio hFAP-HT1080/muscle fluorescence ([3]; 120 min post injection): 3.5
ratio hFAP/WT-HT1080 tumor fluorescence ([3]; 120 min post injection): 2.5
fluorescence in hFAP-HT1080 tumor higher than in WT-HT1080 tumor or muscle ([3]; 24 h post injection): roughly 60%
reduction of fluorescence signal in hFAP-HT1080 tumor ([3]; after 24 h post injection): 59%
WT-HT1080 to muscle ratio ([3]; over the imaging period): close to one
time to plateau of fluorescence in hFAP-HT1080 tumor ([3]; post injection): ~ 10 min
Structure (SMILES): CN(CCCN1CCN(C(=O)[C@H](CCCCNC(=O)CC[C@H](C(=O)O)N2CCN(CC(=O)O)CCN(CC(=O)O)CC2)NC(=O)CCOCCOCCOCCOCCNC(=O)CCCCCC2(C)C(/C=C/C=C/C=C3/N(CCCS(=O)(=O)O)c4ccc(S(=O)(=O)O)cc4C3(C)C)=[N+](CCCS(=O)(=O)O)c3ccc(S(=O)(=O)[O-])cc32)CC1)c1ccc2nccc(C(=O)NCC(=O)N3CC(F)(F)C[C@H]3C#N)c2c1 (stereo partly drawn) [NODAGA-FAP647]
binding or uptake in WT-HT1080 cells (WT-HT1080 cells): did not show any binding or uptake

From PMC12686243, “Synthesis and preclinical evaluation of FAP-targeting radiotracers for PET and optical imaging” (EJNMMI Radiopharmacy and Chemistry, 2025)
